Results taken from patent US11286263B2, “Macrocyclic fluorine substituted indole derivatives” (The Broad Institute, Inc., priority 2017, dated 2022).
pIC50, pKd: −log10 of the molar value. Structures can show the parent of a compound that is named as a salt. Where two headings read alike, the source gives them in different places.

Assays:
MCL1 protein = MCL1 protein (Homo sapiens (Human), UniProt Q07820); assay: PIxEL: protein-protein interaction in permeabilized cells by ELISA (Assay 5); type: cell-based; settings: permeabilized RKO cells, biotin-BIM BH3 peptide, median
Description: Assay 5 PI×EL: Protein-Protein Interaction in Permeabilized Cells by ELISA
Most MCL1 protein molecules are localized at the mitochondria outer membrane and sequester pro-apoptotic proteins through binding of their BCL2 homology domain 3 (BH3 domain). MEB buffer (150 mM mannitol, 10 mM HEPES pH 7.5, 50 mM KCl, 20 μM EDTA, 20 μM EGTA, 5 mM potassium succinate, 0.1% protease-free BSA (SIGMA) with low dose digitonin (0.002%) permeabilizes plasma membrane while leaves live mitochondria, where MCL1 maintains its native localization and conformation. Unlike biophysical assays (e.g. TR-FRET) that use truncated recombinant MCL1 protein, this assay uses full length endogenous MCL1 protein at mitochondria outer membrane. It measures the interaction between MCL1 protein and biotinylated BIM BH3 peptide. Compounds can compete with BIM BH3 peptide to bind to MCL1 protein. This serum free assay measures the affinity between MCL1 protein and compound in permeabilized cells, therefore it is not affected by serum binding and cell permeability, and can measure the intrinsic compound affinity.
On day 1, RKO colon cancer cell line cells were plated at 0.8 million cells/ml, 100 μl/well in 96-well flat bottom TC plates (Corning). MCL1 antibody (Santa Cruz sc-12756) were diluted at 200 fold (final concentration 1 μg/ml) in carbonate buffer (Thermo Fisher Scientific, pH 9.6), and 50 μl of diluted antibody was added to each well of high bind ELISA plates (SARSTEDT). Each plate was tapped to make sure liquid covering entire bottom of wells and incubate at 37° C. overnight.
On the second day, MCL1 antibody was washed from ELISA plate. 250 μl Odyssey® Blocking Buffer (PBS) (Li-Cor) was added to each well, incubated at room temperature for at least 1 hour, then washed once with 250 μl 1×PBST. Plates with RKO cells were gently washed once with 100 μl/well PBS, once with 100 μl/well MEB buffer without digitonin, then 100 μl of MEB buffer with 0.002% digitonin was gently added to each well. Compounds were added with HP Tecan compound dispenser in 3-fold dilution series, highest dose 30 μM, 10-dose per compound in quadruplicates. Biotin-BIM peptide (synthesized by 21st Century) was added with HP Tecan compound dispenser at 0.2 μM immediately after the addition of compounds. Plates were rocked for 1 hour at room temperature. Then MEB buffer was aspirated and 50 μl of CHAPS buffer (50 mM Tris-Cl, pH 7.4, 150 mM NaCl, 1% CHAPS, 1 mM EDTA, 1 mM EGTA, complete protease inhibitors (Roche), PhosSTOP (Roche)) was added to each well. Plates were rocked for 1 hour at 4° C., then 45 μl cell lysate from each well were transferred to ELISA plates coated with MCL1 antibody. Plates were incubated overnight in the cold room with rocking.
On the third day, ELISA plates were washed once with 250 μl 1×PBST. Streptavidin-poly-HRP (Thermo Fisher Scientific) was diluted to 20 ng/ml in Odyssey blocking buffer plus 0.05% Triton-100, and 100 μl was added to each well of the ELISA plate. Plates were incubated at room temperature for 1 hour with rocking, then washed with 100 μL 1×PBST for 3 times. Each SuperSignal ELISA Femto Maximum Sensitivity substrate was added to a 50-ml tube and mixed, then 100 μl of mixed substrate was added to each well. Plates were shaken for 1 minute then luminescence was measured by Envision plate reader […]. Signal of each well were normalized by no-compound control and no-cell control. IC50 was calculated using Graphic Pad PRISM software.

MCL-1 = MCL-1 (Homo sapiens (Human), UniProt Q07820, K194A/K197A/R201A); assay: Protein-compound interaction assay (SPR assay, Assay 8); type: binding; settings: immobilized MBP-MCL-1, 25° C., geometric mean
From the text: Assay 8 Protein-Compound Interaction Assay (SPR Assay)
The ability of the compounds described in this invention to bind to MCL-1 may be determined using surface plasmon resonance (SPR). This allows for the quantification of binding in terms of the equilibrium dissociation constant (KD [M]), as well as association and dissociation rate constants (kon [1/M 1/s] and koff [1/s], respectively). The measurements may be performed using Biacore® T200 or Biacore® S200 instruments (GE Healthcare).
For SPR measurements, recombinant MCL-1 (amino acids 173-321, N-terminal fused to Maltose Binding Protein (MBP) (SEQ ID 1) purchased from Beryllium (Bedford, Mass., USA)) was immobilized using standard amine coupling (Johnsson B et al, Anal Biochem. 1991 Nov. 1; 198(2):268-77). Briefly, carboxymethylated dextran biosensor chips (Series S Sensor Chip CMS, GE Healthcare) were activated with 1-ethyl-3-(3-dimethylaminopropyl)-carbodiimide hydrochloride (EDC) and N-hydroxysuccinimide (NHS) according to the supplier's instructions. MBP-MCL-1 was diluted in 1×PBS-P+ (GE Healthcare) and injected on the activated chip surface. Subsequently, a solution of 1 M ethanolamine-HCl (GE Healthcare) was injected to block unreacted groups, resulting in approximately 400-2500 response units (RU) of immobilized protein. A reference surface was generated by treatment with NHS-EDC and ethanolamine-HCl. […] For SPR binding-measurements, serial dilutions of compound (eight dilution steps, typically ranging from 0.2 nM up to 1 μM) were injected over immobilized protein. […] Compounds were injected for 60 s followed by a dissociation time of up to 1000 s.
The double-referenced sensorgrams were fit to a simple reversible Langmuir 1:1 reaction mechanism as implemented in the Biacore® T200 and S200 evaluation software (T200 evaluation software version 2.0 and S200 evaluation software version 1.0, GE Healthcare).

HMC-1-8 = assay: Antiproliferation assay HMC-1-8 (Assay 7); type: cell-based; settings: 72 h, HMC-1-8 cells, CellTiter-Glo, single determinations, read-out: IC50 Antiproli HMC-1-8
Description: Assessment of the Anti-Proliferative Effect of Compounds in Different Cell Lines
The impact of compounds on the proliferation of different cell lines was assessed using the CellTiter-Glo® Luminescent Cell Viability reagent from Promega (G7573).
In parallel, cells were plated in a reference (day 0) plate for time zero determination.
Rim wells were excluded. The cells were incubated for 72 h hours in a humidified incubator at 37° C. The day 0 plate was measured by adding 30 μL/well of CTG solution (CellTiter-Glo® Luminescent Cell Viability reagent, Promega G7573) to time zero wells in the reference plate followed by a 10 minutes incubation and luminescence reading at 0.1 ms. using the PHERAstar FS microplate reader (BMG Labtech).
After 72 h incubation, the treated plates were measured in the same way as the day 0 plate mentioned above.

Chain of MCL-1 (Q07820 whole entry K194A/K197A/R201A, looked up): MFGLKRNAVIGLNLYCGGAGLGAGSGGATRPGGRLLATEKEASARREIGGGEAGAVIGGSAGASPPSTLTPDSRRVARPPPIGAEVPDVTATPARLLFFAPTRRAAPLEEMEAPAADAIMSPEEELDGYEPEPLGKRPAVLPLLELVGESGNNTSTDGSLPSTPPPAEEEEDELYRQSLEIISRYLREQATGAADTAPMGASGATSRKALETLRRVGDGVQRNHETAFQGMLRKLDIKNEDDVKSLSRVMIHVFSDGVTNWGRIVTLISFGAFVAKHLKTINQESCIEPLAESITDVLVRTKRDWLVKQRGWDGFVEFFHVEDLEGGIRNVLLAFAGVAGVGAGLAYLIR
Chain of MCL1 protein (Q07820 whole entry): as the sequence (Q07820 whole entry K194A/K197A/R201A, looked up) above, with A194K, A197K, A201R counted along it

IC50 (MCL1 protein) [nM] | pKd (MCL-1) | kon (MCL-1) [M⁻¹ s⁻¹] | koff (MCL-1; read-out: koff) [s⁻¹] | SMILES | further results
2060 | 8.64 | 6e+06 | 0.014 | CCc1c2c(nn1C)COCCCCn1c(C(=O)O)c(CCCOc3cccc4ccccc34)c3ccc(F)c-2c31 (single isomer, unassigned; enantiomer 1) [Example 7, 3-ethyl-4-fluoro-2-methyl-7-{3-[(naphthalen-1-yl)oxy]propyl}-2,10,11,12,13,15-hexahydro-pyrazolo[4′,3′:9,10][1,6]oxazacycloundecino[8,7,6-hi]indole-8-carboxylic acid-N-ethylethanamine salt (enantiomer 1)] | 
1400 | 8.38 | 4.6e+06 | 0.019 | Cc1c2c(nn1C)COCCCCn1c(C(=O)O)c(CCCOc3cccc4ccccc34)c3ccc(F)c-2c31 (single isomer, unassigned; enantiomer 1) [Example 3, 4-fluoro-2,3-dimethyl-7-[3-(naphthalen-1-yloxy)propyl]-2,10,11,12,13,15-hexahydropyrazolo-[4′,3′:9,10][1,6]oxazacycloundecino[8,7,6-hi]indole-8-carboxylic acid-N-ethylethanamine salt (enantiomer 1)] | pIC50 (HMC-1-8): 5.21
8910 |  |  |  | CCc1nn(C)c2c1-c1c(F)ccc3c(CCCOc4ccc(F)c5ccccc45)c(C(=O)O)n(c13)CCCCOC2 (single isomer, unassigned; enantiomer 1) [Example 42, 3-ethyl-4-fluoro-7-{3-[(4-fluoronaphthalen-1-yl)oxy]propyl}-1-methyl-1,10,11,12,13,15-hexahydropyrazolo[4′,3′:9,10][1,6]oxazacycloundecino[8,7,6-hi]indole-8-carboxylic acid (enantiomer 1)] | 
7350 |  |  |  | CCc1nn(C)c2c1-c1c(F)ccc3c(CCCOc4cccc5ccccc45)c(C(=O)O)n(c13)CCCCOC2 (racemic) [Example 37, (rac)-12-ethyl-13-fluoro-10-methyl-1-(3-(naphthalen-1-yloxy)propyl)-4,5,6,7,9,10-hexahydro-pyrazolo[4′,3′:9,10][1]oxa[6]azacycloundecino[8,7,6-hi]indole-2-carboxylic acid] | 
2430 |  |  |  | CCc1c2c(nn1C)COCCCCn1c(C(=O)O)c(CCCOc3ccc(F)c4ccccc34)c3ccc(F)c-2c31 (single isomer, unassigned; enantiomer 1) [Example 27, 3-ethyl-4-fluoro-7-{3-[(4-fluoronaphthalen-1-yl)oxy]propyl}-2-methyl-2,10,11,12,13,15-hexahydropyrazolo[4′,3′:9,10][1,6]oxazacycloundecino[8,7,6-hi]indole-8-carboxylic acid-N-ethylethanamine salt (enantiomer 1)] | 
15100 | 7.57 |  |  | CCc1c2c(nn1C)COCCCCn1c(C(=O)O)c(CCCOc3cccc4cc(F)ccc34)c3ccc(F)c-2c31 (single isomer, unassigned; enantiomer 2) [Example 23, 3-ethyl-4-fluoro-7-{3-[(6-fluoronaphthalen-1-yl)oxy]propyl}-2-methyl-2,10,11,12,13,15-hexahydropyrazolo[4′,3′:9,10][1,6]oxazacycloundecino[8,7,6-hi]indole-8-carboxylic acid-N-ethylethanamine salt (enantiomer 2)] | koff (MCL-1): 0.0026 s⁻¹; kon [1/M 1/s] (MCL-1): 9.7E4 1/M 1/s
872 | 9.16 | 1.1e+07 | 0.0077 | Cc1c2c(nn1C)COCCCCn1c(C(=O)O)c(CCCOc3cccc4cc(F)ccc34)c3ccc(F)c-2c31 (single isomer, unassigned; enantiomer 1) [Example 13, 4-fluoro-7-{3-[(6-fluoronaphthalen-1-yl)oxy]propyl}-2,3-dimethyl-2,10,11,12,13,15-hexahydro-pyrazolo[4′,3′:9,10][1,6]oxazacycloundecino[8,7,6-hi]indole-8-carboxylic acid-N-ethylethanamine salt (enantiomer 1)] | 
4160 |  |  |  | Cc1c2c(nn1C)COCCCCn1c(C(=O)O)c(CCCOc3ccc(F)c4ccccc34)c3ccc(F)c-2c31 (racemic) [Example 15, (rac)-13-fluoro-1-(3-((4-fluoronaphthalen-1-yl)oxy)propyl)-11,12-dimethyl-4,5,6,7,9,11-hexahydropyrazolo[4′,3′:9,10][1]oxa[6]azacycloundecino[8,7,6-hi]indole-2-carboxylic acid] | 
 | 7.37 | 230000 | 0.01 | Cc1c2c(nn1C)COCCCCn1c(C(=O)O)c(CCCOc3cccc4ccccc34)c3ccc(F)c-2c31 (racemic) [Example 2, (rac)-4-fluoro-2,3-dimethyl-7-[3-(naphthalen-1-yloxy)propyl]-2,10,11,12,13,15-hexahydro-pyrazolo[4′,3′:9,10][1,6]oxazacycloundecino[8,7,6-hi]indole-8-carboxylic acid] | pIC50 (HMC-1-8): 5.00; pIC50 (HMC-1-8; listed as 02): 5.12
32300 |  |  |  | Cc1c2c(nn1C)COCCCCn1c(C(=O)O)c(CCCOc3ccc(F)c4ccccc34)c3ccc(F)c-2c31 (single isomer, unassigned; enantiomer 1) [Example 16, 4-fluoro-7-{3-[(4-fluoronaphthalen-1-yl)oxy]propyl}-2,3-dimethyl-2,10,11,12,13,15-hexahydro-pyrazolo[4′,3′:9,10][1,6]oxazacycloundecino[8,7,6-hi]indole-8-carboxylic acid (enantiomer 1)] | 
